Laboratory results taken from patent US10798942B2, “Abiotic stress tolerance” (SYNGENTA PARTICIPATIONS AG, priority 2016, dated 2020).

Test system: rice plants
Assay: Field trials 2012-2015: tolerance of rice plants to heat stress (eleven trials)
Assay type: in vivo, Oryza sativa L.
Method: Field trials were setup during the hot season in India to test the effect of treatment with the compound of formula (Ia) on tolerance of rice plants to heat stress.
Trials were conducted in 2012, 2013, 2014, and 2015 in the Tamil Nadu rice production area (India) at the following sites: Kelamoor (lat. 12.42, long. 79.81), Kokkur (lat. 11.02, long. 79.32), Nachinargudi (lat. 11.01, long. 79.3), Velamoor (lat. 12.41, long. 79.8), Kumbakonam (lat. 10.97, long. 79.42) and Ramapuram (lat. 12.43, long. 79.83). The test sites had similar soil chemical properties, with an average soil pH of 6.6.
Rice (Oryza sativa L.) of the local varieties ADT43, ADT45 and NK5251 were mechanically transplanted at four plants per hill with a plant spacing of 16 cm and a row spacing of 30 cm. All trials were performed in good level of water management. Fertilizer was applied in accordance with the best local practice across the trial area.
Commercial treated seeds (no neonicotinoids as seed treatments) were used. Weed control was according to the best local practice in order to provide excellent weed control. Foliar fungicides and insecticides were applied according to common practice (no products that contain neonicotinoids or strobilurins).
The trial design was a randomized bloc design. Plot size was 40 m^2 (4 m width [12 rows] by 10 m row length). Each trial had four replicates. In total, eleven trials were conducted.
The compound of formula (Ia) was applied at a rate of 10 g ai/ha with small-plot hand-held boom sprayer. Application of the compound was as broadcast foliar spray in close proximity to leaf/canopy surface (25-40 cm distance from the crop). The used spray volumes were between 250 L/ha and 500 L/ha. Application was done either at panicle initiation (BBCH 30), at panicle formation (BBCH 32), at spikelet differentiation (BBCH 35), at meiosis (BBCH 39) or at heading (BBCH 51). In some experiments, the compound was applied twice (2×10 g ai/ha) at consecutive growth stages (i.e., BBCH 30+32, BBCH 32+35, BBCH 35+39, and BBCH 39+51).
Temperature was recorded nearby the trial sites. During and up to 14 days after the critical growth stages (i.e. from panicle initiation until heading) the mean daily minimum temperature was 25.1° C. (in the range of 22.6° C. to 27.1° C.) and the mean daily maximum temperature was 35.5° C. (in the range of 29.0 to 38.9° C.).
Tolerance to heat stress was assessed by measuring the following yield components: number of panicles per area, number of grains per panicle, percentage of ripened (filled) grains, number of tillers per area, percentage of productive tillers, grain yield per area at 14% moisture and thousand grain weight (TGVV).
The data in Tables 1 to 3 represent averages of the results from all eleven independent field trials, expressed as a percentage compared to the untreated control. The percentage increase or decrease was calculated for each trial relative to the untreated control for that trial, prior to calculating the mean percentage change across all 11 trials.

[1] = BBCH 30 at application, 10 g ai/ha foliar spray, mean of 11 trials, mean daily min 25.1° C., max 35.5° C.
[2] = BBCH 32 at application, 10 g ai/ha foliar spray, mean of 11 trials, mean daily min 25.1° C., max 35.5° C.
[3] = BBCH 35 at application, 10 g ai/ha foliar spray, mean of 11 trials, mean daily min 25.1° C., max 35.5° C.
[4] = BBCH 39 at application, 10 g ai/ha foliar spray, mean of 11 trials, mean daily min 25.1° C., max 35.5° C.
[5] = BBCH 51 at application, 10 g ai/ha foliar spray, mean of 11 trials, mean daily min 25.1° C., max 35.5° C.
[6] = maximum air temperature 35.1-36 ° C. during five days after application, applied between BBCH 30 and BBCH 51, 10 g ai/ha
[7] = maximum air temperature 36.1-37 ° C. during five days after application, applied between BBCH 30 and BBCH 51, 10 g ai/ha
[8] = maximum air temperature >37 ° C. during five days after application, applied between BBCH 30 and BBCH 51, 10 g ai/ha
[9] = maximum air temperature ≤35 ° C. during five days after application, applied between BBCH 30 and BBCH 51, 10 g ai/ha

Structure (SMILES): COc1cccc(Nc2nc(F)nc3[nH]cnc23)c1 [formula (Ia)]
- Empty spikelets (% of UTC) [1]: −7.5 % of UTC
- TGW (% of UTC), thousand grain weight [1]: +2.5 % of UTC
- Grain yield (% of UTC) (BBCH 30 at application, 10 g ai/ha foliar spray, mean of 11 trials, mean daily min 25.1° C., max 35.5° C. during 14 days after application): +6.0 % of UTC
- grain yield (as percent change compared to untreated controls) (BBCH 30 at application, maximum air temperature >36° C. during five days after application, 10 g ai/ha): +7.5%
- grain yield (as percent change compared to untreated controls) (BBCH 30 at application, maximum air temperature ≤36° C. during five days after application, 10 g ai/ha): +1.6%
- Empty spikelets (% of UTC) [2]: −9.3 % of UTC
- Grain yield (% of UTC) [2]: +7.4 % of UTC
- TGW (% of UTC), thousand grain weight [2]: +2.2 % of UTC
- grain yield (as percent change compared to untreated controls) (BBCH 32 at application, maximum air temperature >36° C. during five days after application, 10 g ai/ha): +9.0%
- grain yield (as percent change compared to untreated controls) (BBCH 32 at application, maximum air temperature ≤36° C. during five days after application, 10 g ai/ha): +0.7%
- Empty spikelets (% of UTC) [3]: −3.8 % of UTC
- Grain yield (% of UTC) [3]: +4.7 % of UTC
- TGW (% of UTC), thousand grain weight [3]: +1.8 % of UTC
- grain yield (as percent change compared to untreated controls) (BBCH 35 at application, maximum air temperature >36° C. during five days after application, 10 g ai/ha): +5.4%
- grain yield (as percent change compared to untreated controls) (BBCH 35 at application, maximum air temperature ≤36° C. during five days after application, 10 g ai/ha): +1.8%
- Empty spikelets (% of UTC) [4]: −6.6 % of UTC
- Grain yield (% of UTC) [4]: +4.9 % of UTC
- TGW (% of UTC), thousand grain weight [4]: +1.6 % of UTC
- grain yield (as percent change compared to untreated controls) (BBCH 39 at application, maximum air temperature >36° C. during five days after application, 10 g ai/ha): +5.1%
- grain yield (as percent change compared to untreated controls) (BBCH 39 at application, maximum air temperature ≤36° C. during five days after application, 10 g ai/ha): +2.6%
- Empty spikelets (% of UTC) [5]: −3.5 % of UTC
- Grain yield (% of UTC) [5]: +2.8 % of UTC
- TGW (% of UTC), thousand grain weight [5]: +2.0 % of UTC
- grain yield (as percent change compared to untreated controls) (BBCH 51 at application, maximum air temperature >36° C. during five days after application, 10 g ai/ha): +3.6%
- grain yield (as percent change compared to untreated controls) (BBCH 51 at application, maximum air temperature ≤36° C. during five days after application, 10 g ai/ha): −0.7%
- grain yield, effect in words (applied between BBCH 30 (panicle initiation) and BBCH 51 (heading)): an increase of grain yield was achieved
- effect of treatment on rice grain yield, in words (daily maximum temperature above 36° C. at least one day after application but within 5 days after application): clear beneficial effect
- Grain yield (% of UTC) [6]: +1.1 % of UTC
- TGW (% of UTC) [6]: +2.3 % of UTC
- Grain yield (% of UTC) [7]: +5.5 % of UTC
- TGW (% of UTC) [7]: +2.2 % of UTC
- Grain yield (% of UTC) [8]: +6.6 % of UTC
- TGW (% of UTC) [8]: +1.8 % of UTC
- Grain yield (% of UTC) [9]: +0.9 % of UTC
- TGW (% of UTC) [9]: +1.4 % of UTC
- heat stress protection, in words (plants at growth stages from panicle initiation (BBCH 30) to heading (BBCH 51) at the time of treatment): heat stress protection was achieved
